Source: paper PMC3763632, “Radiosynthesis and Radiotracer Properties of a 7-(2-[^18F]Fluoroethoxy)-6-methoxypyrrolidinylquinazoline for Imaging of Phosphodiesterase 10A with PET” (Pharmaceuticals, 2012)
pKd: −log10 of the molar value. Where “and” joins values, the source holds several entries; their conditions need not be identical. Identical values can stand only once.

Molecular target: T1, PDE10A (Homo sapiens, UniProt Q9Y233)
T1 construct: purchased Biocrea GmbH, Radebeul, Germany; host or cells: SF21 insect cells (PDE10A-transfected; baculovirus system is mentioned)
Experiment: Homologous competitive binding on membrane homogenates of PDE10A-transfected SF21 cells
Protocol: The dissociation constant KD of [^18F]IV was determined in homologous competitive binding experiments by nonlinear regression analysis. Cell membrane homogenates from PDE10A-transfected SF21 cells (100 µg protein/mL incubation volume) were incubated with solutions of six concentrations of IV (working concentration 10 pM–[…]), each spiked with a fixed concentration of [^18F]IV (working concentration 0.05–0.1 nM).
Crude membrane homogenates isolated from PDE10A-transfected SF21 cells were obtained from Biocrea GmbH, Radebeul, Germany. For competitive radioligand displacement experiments (n = 2), the membrane preparations were diluted with incubation buffer (50 mM Tris-HCl, pH 7.4 at room temperature, 5 mM MgCl2) and re-homogenized by passing through a 27-gauge needle. The protein (100 µg) was incubated with 0.05–0.1 nM of [^18F]IV and different concentrations of IV (10 pM–1 µM), diluted from a 10 mM stock in DMSO, at a final volume of 1 mL. Nonspecific binding was determined in the presence of 10 µM of I, and control incubation was carried out accordingly using crude membrane preparations obtained from non-transfected SF21 cells.
Incubation at room temperature was terminated after 120 min by rapid filtration (Brandel 48-channel harvester; Biomedical Research and Development Lab. Inc., Gaithersburg, MD, USA) on Whatman GF/B glass-fiber filters, pre-soaked for 90 min in 0.3% polyethylenimine (Sigma, Deisenhofen, Germany), followed by washing four times with 4 mL of ice-cold wash buffer (50 mM Tris-HCl, pH 7.4 at 4 °C). Filter-bound radioactivity was quantified using a calibrated γ-counter (Wallac WIZARD, Perkin Elmer, Waltham, MA, USA).
Each experiment was carried out in triplicate. The binding parameter IC50 was estimated using iterative non-linear curve fitting. KD of [^18F]IV was estimated directly from homologous competition curve with KD = IC50-[radioligand] as well as from the respective saturation isotherm by nonlinear regression analysis.

T1 sequence (Q9Y233 whole entry, species assumed): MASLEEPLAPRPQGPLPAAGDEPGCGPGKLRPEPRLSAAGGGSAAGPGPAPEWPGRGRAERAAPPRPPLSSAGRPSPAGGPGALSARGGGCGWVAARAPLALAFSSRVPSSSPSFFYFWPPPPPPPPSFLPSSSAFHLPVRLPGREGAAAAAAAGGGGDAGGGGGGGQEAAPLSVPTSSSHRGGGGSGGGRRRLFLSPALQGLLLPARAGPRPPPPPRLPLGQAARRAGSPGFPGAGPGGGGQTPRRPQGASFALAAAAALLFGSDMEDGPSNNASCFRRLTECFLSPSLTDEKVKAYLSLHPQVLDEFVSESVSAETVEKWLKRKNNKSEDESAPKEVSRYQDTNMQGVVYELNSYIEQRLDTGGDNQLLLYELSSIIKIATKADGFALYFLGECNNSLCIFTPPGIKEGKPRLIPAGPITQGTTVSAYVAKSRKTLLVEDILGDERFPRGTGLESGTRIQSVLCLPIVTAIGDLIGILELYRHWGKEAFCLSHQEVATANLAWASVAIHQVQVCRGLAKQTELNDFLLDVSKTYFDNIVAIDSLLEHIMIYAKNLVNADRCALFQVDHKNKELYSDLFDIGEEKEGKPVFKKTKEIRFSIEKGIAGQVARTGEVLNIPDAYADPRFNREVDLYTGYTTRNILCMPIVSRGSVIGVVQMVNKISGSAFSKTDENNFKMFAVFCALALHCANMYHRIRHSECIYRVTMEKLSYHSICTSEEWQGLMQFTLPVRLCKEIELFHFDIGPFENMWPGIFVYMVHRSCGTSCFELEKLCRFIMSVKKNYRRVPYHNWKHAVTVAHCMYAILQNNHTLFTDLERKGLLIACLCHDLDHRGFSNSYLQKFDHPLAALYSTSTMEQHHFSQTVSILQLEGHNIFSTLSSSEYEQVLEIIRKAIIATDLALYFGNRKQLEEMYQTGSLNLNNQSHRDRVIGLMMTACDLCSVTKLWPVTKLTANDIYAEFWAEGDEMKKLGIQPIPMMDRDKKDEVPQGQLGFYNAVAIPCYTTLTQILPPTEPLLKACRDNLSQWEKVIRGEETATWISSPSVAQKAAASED

Question: COc1cc2c(N3CC[C@@H](Oc4cnc5ccccc5n4)C3)ncnc2cc1OCC[18F] [[^18F]IV, (R)-7-(2-[^18F]Fluoroethoxy)-6-methoxy-4-(3-(quinoxalin-2-yloxy)pyrrolidin-1-yl)quinazoline] was tested. Which pKd (mean, n = 2, calculated from homologous competition) did it give?
Answer: The pKd was 7.85 and ~7.85.

Question: What about the pKd (single experiments (n = 2)) of the same compound?
Answer: Its pKd is 7.80 and 7.94.
